Laboratory results as given in article PMC12392461, “Beyond Estrogenicity: A Comparative Assessment of Bisphenol A and Its Alternatives in In Vitro Assays Questions Safety of Replacements” (Environmental Science & Technology, 2025).
Like-named read-outs stand apart in the source and are kept apart here.

What was measured:
[1] = target: T1, Estrogen Receptor ERα (Homo sapiens, UniProt P03372); test: cell-based; settings: for EC10, linear transformed / EC10, linear / logEC10: dosing range all; for ERα activation: at noncytotoxic concentrations; for EC10, ERα (M): 10% of maximum effect of E2; for REPBPA,ERα (relative effect potency in relation to BPA): EC10,BPA/EC10,BPx; for SR-ScoreERα: SR-Score, sigma k=1, x=5; for Efficacy % / EC10 / REPBPA: This Study; for EC10: ERα; for REPBPA: relative estrogenic potency vs BPA; for Specificity ratio (SRbaseline) SRERα: against baseline cytotoxicity; for Specificity ratio (SRcytotoxicity) SRERα: against experimental cytotoxicity; for EC10, ERα: effect; for log(1/EC10) ERα: input of the ToxPi score, values up to 1.00; for Relative effect potency REPERα: relative to BPA
T1 sequence (P03372 311-547 limits assumed): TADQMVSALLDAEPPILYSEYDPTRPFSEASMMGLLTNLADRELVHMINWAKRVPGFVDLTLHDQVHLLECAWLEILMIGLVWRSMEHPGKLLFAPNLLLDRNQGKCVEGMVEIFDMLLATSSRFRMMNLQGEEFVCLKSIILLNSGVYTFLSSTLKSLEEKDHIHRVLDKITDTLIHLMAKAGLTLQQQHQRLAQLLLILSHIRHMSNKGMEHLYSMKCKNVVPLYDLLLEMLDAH
Method in brief: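 Reporter cells (ERα-UAS-bla GripTite; PPARγ-UAS-bla) grew 24 h at 37 °C, 5% CO₂ in medium containing 2% charcoal-stripped FBS. Cytotoxicity, tracked as IncuCyte confluency, capped data at IC10 for EC10 derivation. Emax% is the fitted log-logistic maximum expressed against the reference chemical's maximum.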

[2] = target: T1, Estrogen Receptor ERα; test: aCYP oxidation followed by ERα-UAS-bla GripTite assay (TK-Ratio of effect); assay type: cell-based; settings: for EC10, before oxidation / EC10, after oxidation: ERα, in M; for EC10, after oxidation: after abiotic CYP catalyst; for TKERα: TKERα-Ratio
Description: Cell culture conditions and bioassay protocols including response detection are provided in Text S2.1–2.4 and Table S3. − Cell viability was determined from cell confluency using an IncuCyte S3 Live-Cell Analysis System (Sartorius AG, Essen, Germany) before and after exposure, except for SH-SY5Y cells (live–dead staining with Nuclear Green LcS1 and propidium iodide, Abcam, UK). For metabolic activation experiments, cell viability was assessed using the ToxBLAzer DualScreen Kit (Thermo Fisher Scientific) to capture the remaining toxicity in ERα-UAS-bla GripTite after treatment with the aCYP catalyst (details in Text S2.4). […]
The TK-Ratio method was used to evaluate the impact of abiotic CYP oxidation on the potency of tested compounds. […]
For experiments with the preceding aCYP activation, ERα cell viability was additionally calculated from the readout of the ToxBLAzer reagent. The ToxBLAzer assay was conducted following the manufacturer's instructions (Thermo Fisher, Waltham, MA, U.S.).13 Fluorescence intensity was recorded at the start of the assay ( Fwavelength(0h)) and after a 2-hour incubation at […]
Cell viability was assessed based on the red fluorescence signal at 665 nm, applying eq. S11 for normalization.
Cell viability = F665nm(2h, sample)-F665nm(0h, average cell-free) (S11) F665nm(2h, average unexposed)-F665nm(0h, average cell-free) […]
the specific endpoint to avoid artifacts from cytotoxicity burst. 15
S2.5: Concentration-response curves (CRCs)
To avoid bias from cytotoxicity burst at higher concentrations, all concentrations exceeding the IC10 for cytotoxicity were excluded in the CRC modeling of effects but otherwise cytotoxicity and effects were fitted with the same model equations (response stands for cytotoxicity or effect). For ERα, AhR, ARE and PPARγ preferably a linear model was fitted to the linear portion of CRC up to maximum 30% effect (eq. S12),16 but in some cases it was necessary to choose a sigmoidal log-concentration-response model, specifically a log-logistic model (eq. S13), to derive effect concentrations and cytotoxicity. For mitochondrial toxicity and neurotoxicity, the […]
are not reporter gene assays. Common practice when using log-logistic models, e.g., the model implemented in tcpl package in R,17, 18 is that the minima and maxima are also fitted and only median effect concentrations AC50 are derived. […]
concentrations (EC10) for both linear and log-sigmoidal CRCs to allow absolute comparisons at the same effect level and for TR and SR -analysis. This was done using the AutomatedBioassayScreening19 published by Braun et al.,20 which also included an algorithm to choose the best model between eq. S12 and eq. S13.
Response (%) = slope × C (S12) […]
logEC =logEC − 1 ∙log (max−min − 100%) (S14)

[3] = ERα bioassay, linear model, in M
[4] = ERα bioassay, log-logistic model
[5] = Bioassay ERα, log-logistic model fit
[6] = read-out: Emax%ERα, maximum efficacy relative to E2
[7] = Bioassay ERα, linear model fit, in M

| Compound | EC10, linear ([1]; Bioassay ERα, linear model fit) | logEC10 [1, 5] | ERα activation [1] | EC10, ERα (M) [1] | REPBPA,ERα (relative effect potency in relation to BPA) [1] | SR-ScoreERα [1] | Efficacy % [1] [%] | EC10 ([1]; in M) | REPBPA [1] | Specificity ratio (SRbaseline) SRERα [1] | EC10, ERα [1] [µM] | log(1/EC10) ERα [1] | Relative effect potency REPERα [1] | EC10, before oxidation ([2]; Table S10) | other results |
| --- | --- | --- | --- | --- | --- | --- | --- | --- | --- | --- | --- | --- | --- | --- | --- |
| CC1(C)[C@H](O)C(C)(C)[C@H]1O [Trans TMCD] | – | – | – | – | – | – | – | – | – | – | – | – | – | – | EC10, linear transformed ([1]; ERα bioassay, in M): 3.18E-03; EC10, linear [1, 3]: 3.03E-03; logEC10 [1, 4]: -2.47 |
| CC(C)(c1ccc(O)c(-c2ccccc2)c1)c1ccc(O)c(-c2ccccc2)c1 [BPPH, 2,2-Bis(2-hydroxy-5-biphenylyl)propane] | no effect | no effect | did not activate ERα at noncytotoxic concentrations | – | – | – | – | – | – | – | – | – | – | – | Emax [1, 6]: 0% |
| Cc1cc(Cc2cc(C)c(O)c(C)c2)cc(C)c1O [TMBPF, Bis(3,5-dimethyl-4-hydroxyphenyl)methane] | no effect | no effect | did not activate ERα at noncytotoxic concentrations | – | – | – | – | – | – | – | – | – | – | – | Emax ([1]; read-out: Emax%ERα): 0% |
| CC(C)Oc1ccc(S(=O)(=O)c2ccc(O)cc2)cc1 [D8, 4-((4-Isopropoxyphenyl)sulfonyl)phenol] | – | -4.95 | – | 1.12 × 10^–5 M | 0.033 | 1.00 | 18.50 | 1.12E-05 | 3.29E-02 | 5.88 | 11.2 | 0.63 | 0.0329 | 1.21E-05 | EC10, linear transformed ([1]; Bioassay ERα, in M): 1.21E-05; EC10, linear [1, 7]: 1.41E-05; Specificity ratio (SRcytotoxicity) SRERα [1]: 16.41; Emax ([1]; read-out: Emax%ERα): 18% |
| CC1(C)[C@H](O)C(C)(C)[C@H]1O [t-TMCD, trans-2,2,4,4-Tetramethyl-1,3-cyclobutanediol] | – | – | – | 3.03 × 10^–3 M | 1.2 × 10^–4 | 0.00922 | <20 | 3.03E-03 | 1.22E-04 | 0.32 | 3030 | 0.32 | 0.000122 | 3.18E-03 | – |
| CC(C)c1cc(C(C)(C)c2ccc(O)c(C(C)C)c2)ccc1O [BPG, 2,2-Bis(4-hydroxy-3-isopropylphenyl)propane] | – | -6.04 | – | 9.02 × 10^–7 M | – | 0.94 | 19.01 | 9.02E-07 | 4.11E-01 | 1.60 | 0.902 | 0.77 | 0.41 | 9.02E-07 | EC10, linear transformed ([1]; Bioassay ERα, in M): 9.02E-07; EC10, linear [1, 7]: 9.31E-07; Specificity ratio (SRcytotoxicity) SRERα [1]: 7.71; Emax [1, 6]: 19%; EC10, after oxidation ([2]; Table S10): 3.40E-06; TKERα ([2]; Table S10): 0.2649; EC10, after oxidation ([2]; Table S11): 1.51E-05; EC10, before oxidation ([2]; Table S11): 9.71E-06; TKERα ([2]; Table S11): 0.64 |
| CC1(C)C(O)C(C)(C)C1O (racemic) [r-TMCD, 2,2,4,4-Tetramethyl-1,3-cyclobutanediol (racemate)] | – | – | – | 1.29 × 10^–2 M | 2.9 × 10^–5 | 0.00722 | <20 | 1.29E-02 | 2.88E-05 | 0.08 | 12900 | 0.24 | 2.88e-5 | 1.18E-02 | EC10, linear transformed ([1]; ERα bioassay, in M): 1.18E-02; EC10, linear [1, 3]: 1.29E-02; logEC10 [1, 4]: -1.93 |
| CC(C)(c1ccc(OCC2CO2)cc1)c1ccc(OCC2CO2)cc1 (stereo not drawn) [BADGE, Bisphenol A diglycidyl ether] | no effect | no effect | did not activate ERα at noncytotoxic concentrations | – | – | – | – | – | – | – | – | – | – | – | – |
